Data reported in patent publication US20210101879A1, “AMYLOID PROTEIN-SELECTIVE BACE INHIBITORS (ASBIs) FOR ALZHEIMER?S DISEASE” (The Regents of the University of California, priority 2018, published 2021).
“And” between values parts separate entries of the source, which are not always exact repeats. Identical values can stand only once. Like-named read-outs stand apart in the source and are kept apart here.

Tests used:
[1] = test system: neuregulin 1 (NRG-1) (Homo sapiens (Human)); experiment: NRG1 cleavage assay in NRG1-BACE1 co-transfected 293T cells; assay type: cell-based
Experimental: (§1) 293T cells were plated in 96-well plates at 40,000 cells/well, incubated overnight at 37° C. and 5% CO2. Next day, cells were co-transfected with NRG1-BACE1 plasmids or PSGL1-BACE1 plasmids using Lipofectamine2000, as describe previously. Six hours after transfection, the reagents were removed and media containing the different compounds at various concentrations were loaded into each well.
(§2) After overnight incubation with the compounds, 20 μL of media were removed and added to a new plate. Then, 200 μl of reaction solution (0.1 M glycine, pH 10.4, 1 mM MgCl2, 1 mM ZnCl2 containing 1 mg/ml 4-nitrophenyl phosphate disodium salt hexahydrate, Sigma S0942) were loaded into each well of the plate. The absorbance was read at 405 nm for 60 min in 30 min intervals in a SpectraMax M5.
(§3) These compounds were diluted to 10 mM in DMSO. This solution was diluted to 20, 10, 2, 1, 0.2 and 0.02 μM in DMEM high Glucose containing 10% of FBS and 1% of Penicillin-Streptomycin containing 0.2% DMSO.

[2] = test system: CHO-7W cells (stably transfected with human amyloid precursor protein wildtype); experiment: CHO-7W cell assay (AlphaLISA of media); assay type: cell-based, Chinese hamster; settings: treatment for 24 hours
Experimental: For the assay, 50 μL of CHO-7W cells were added to each well at 4×10^5 cells/mL. Then, 50 μL of inhibitor, prepared for tested concentrations, were added to appropriated wells and incubated for 24 hours at 37° C. Afterwards, media from each well is collected and assayed using an AlphaLISA assay for respective analytes.

[3] = molecular target: BACE-1 (Homo sapiens (Human), UniProt P56817); experiment: cell-free BACE enzyme assay with P5-P5′ substrate; assay type: biochemical
Sequence of BACE-1 (P56817 46-501): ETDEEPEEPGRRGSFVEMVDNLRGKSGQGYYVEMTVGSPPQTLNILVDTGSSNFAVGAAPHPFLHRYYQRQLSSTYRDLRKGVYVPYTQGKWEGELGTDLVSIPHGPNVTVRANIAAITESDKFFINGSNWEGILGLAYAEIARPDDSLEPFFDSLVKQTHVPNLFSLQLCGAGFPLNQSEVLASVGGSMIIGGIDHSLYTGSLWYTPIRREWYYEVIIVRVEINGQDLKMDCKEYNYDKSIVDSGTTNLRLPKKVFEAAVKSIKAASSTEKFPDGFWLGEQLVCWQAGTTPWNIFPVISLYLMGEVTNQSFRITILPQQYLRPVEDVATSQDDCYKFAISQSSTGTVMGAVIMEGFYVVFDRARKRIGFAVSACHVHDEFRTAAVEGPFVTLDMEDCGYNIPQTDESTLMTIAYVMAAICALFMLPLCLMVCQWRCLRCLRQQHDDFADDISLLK
Experimental: For the assay, 4 μL of assay buffer was added to each well, followed by 2 μL of BACE-1 diluted in assay buffer to 7.5 ng/μL. Then, 2 μL of inhibitor, at concentrations along an 11 pt. two-fold dilution series starting at 0.5 μM, were added to appropriate wells and incubated for 30 minutes at room temperature. Afterwards, 2 μL of P5-P5′ BACE-1 substrate, diluted to 50 μM in assay buffer, were added to each well, after which the signal generated was read every 30 minutes at 25° C. for 2 hr.

[4] = pharmacokinetic study in rats; assay type: in vivo; settings: wildtype Sprague-Dawley rats, 30 mg/kg orally, at 2 hours
[5] = test system: BACE cleavage of APP; experiment: pilot study in AD model mice; assay type: in vivo; settings: orally 30 mg/kg/day for 10 days
[6] = test system: p-selectin glycoprotein ligand 1 (PSGL-1) (Homo sapiens (Human)); experiment: PSGL1 cleavage assay in PSGL1-BACE1 co-transfected 293T cells; assay type: cell-based
Experimental: as §1, §2, §3

[7] = molecular target: Cathepsin D (CatD) (Homo sapiens (Human), UniProt P07339); experiment: Cathepsin-D assay; assay type: biochemical
Sequence of Cathepsin D (CatD) (P07339 65-412, species assumed): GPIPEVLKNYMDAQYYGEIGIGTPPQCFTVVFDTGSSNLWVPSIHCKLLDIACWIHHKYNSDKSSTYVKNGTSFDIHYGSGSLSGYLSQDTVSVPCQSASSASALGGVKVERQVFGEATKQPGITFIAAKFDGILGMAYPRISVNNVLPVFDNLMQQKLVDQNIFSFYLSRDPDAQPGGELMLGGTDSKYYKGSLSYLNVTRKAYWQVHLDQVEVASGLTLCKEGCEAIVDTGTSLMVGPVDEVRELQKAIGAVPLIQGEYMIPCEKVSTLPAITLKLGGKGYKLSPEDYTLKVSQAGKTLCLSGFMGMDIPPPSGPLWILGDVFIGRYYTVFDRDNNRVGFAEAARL
Experimental: For the assay, 4 μL of assay buffer was added to each well, followed by 2 μL of Cathepsin D (CatD) diluted in assay buffer to 5 ng/μL. Then, 2 μL of inhibitor, prepared to get a testing concentration of 20 μM, were added to appropriated wells and incubated for 30 minutes at room temperature. Afterwards, 2 μL of CatD substrate, diluted to 50 μM in assay buffer, were added to each well, after which the signal generated was read every 30 minutes at 25° C. for 1 hr. Signals shown in FIG. 6 are representative of readings at 1 hr.

[8] = PAMPA; assay type: in vitro ADME
[9] = pharmacokinetics in mice; assay type: in vivo
[10] = test system: BACE cleavage of APP; experiment: pharmacodynamic pilot study in rats (CSF and brain tissue); assay type: in vivo, Sprague-Dawley rats; settings: 30 mg/kg orally

inhibitory activity in cleavage of neuregulin 1 (NRG-1) [1]: little cleavage | soluble amyloid precursor protein beta (sAPPβ) [2]: significantly decreased | IC50 ([3]; cell-free BACE assay): 22 nM | IC50 ([3]; cell-free, several replicate values per cell, some flagged 's' (flag not defined), read-out: BACE1 IC50): 5 to 10 nM and 19 nM and 11.2 nM and 16 nM and 11 nM and 15 nM and 24 nM and 14 nM | brain peak [4]: 182 ng/g | inhibitory activity in cleavage of p-selectin glycoprotein ligand 1 (PSGL-1) [6]: little cleavage | IC50 [7]: 47100 nM | brain penetrance [9]: brain-penetrant | peak in brain ([9]; oral delivery at 30 mg/kg, one hour post-dosing): 74 ng/g
Compound: Cc1cc(C2(c3cccc(-c4cncnc4)c3)N=C(N)N(C)C2=O)ccc1OC(F)F (racemic) [FAH-65, 2-amino-5-(4-(difluoromethoxy)-3-methylphenyl)-3-methyl-5-(3-(pyrimidin-5-yl)phenyl)-3,5-dihydro-4H-imidazol-4-one]
amyloid-beta (Aβ) [2]: significantly decreased | BACE/γ-secretase product Aβ [5]: trend to decrease | decrease of APP-derived BACE cleavage product βCTF (beta C-terminal fragment) [5]: significantly | PAMPA [8]: 0.44 and 0.45 and 0.46 and 0.47 and 0.52 and 0.48 and 0.49 | sAPPβ in CSF ([10]; at 3 and 6 hours, vs untreated controls): reduced | Aβ1-40 levels ([10]; compared to control, decrease persisted to 24 hours): decreased
